Test results from PMC10728220, “Novel 3-(pyrazol-4-yl)-2-(1H-indole-3-carbonyl)acrylonitrile derivatives induce intrinsic and extrinsic apoptotic death mediated P53 in HCT116 colon carcinoma” (Scientific Reports, 2023).
In brackets after ≈: the same amount, converted by molar mass. Entries after “also recorded” stand apart in the source; their conditions may differ.

Experiments:
[1] = tested on: p53; assay: RT-PCR gene expression, p53, in HCT116; assay type: cell-based, human; conditions: HCT116, 6.76 µg/mL, 48 h, relative to untreated control
Method: (§1) In this current research, relative gene expression related to apoptosis should be studied well because they were very interesting to understand the effect of our selected compound on this important biological process. HCT116 cells were treated with chalcone 7f (6.76µg/mL) for 48 h, and then subjected to qPCR analysis regarding control samples. The effect of chalcone 7f on the expression level of (Bax, p53, Bcl2, and CDK4) genes was assessed using the qPCR technique. […] As indicated in this schematic diagram, the expression of apoptotic genes (Bax and P53) was enhanced by the effect of chalcone 7f to reach (3.662, and 5.435) respectively, relative to the control.
(§2) Total RNA was extracted from the compound 7f-treated HCT116 cells and the untreated cells using the RNA Purification Kit GeneJET (Thermo scientific, ON, Canada) 0.1 µg of the extracted RNA was reverse transcribed into complementary DNA (cDNA) using High-Capacity cDNA Reverse Transcription Kit (Thermo Scientific, ON, Canada). qPCR was done using Brilliant SYBR Green qPCR master mix (Applied Biosystems, San Francisco, CA, USA) in One Step Plus Real-Time PCR System (Applied Biosystems, San Francisco, CA, USA). […] The relative gene expression was determined using the 2^−ΔΔCt equation after normalization to the expression of β-actin (housekeeping gene) (Qiagen, CA, USA)(10 pmol/µL)[85], [86]. […]

[2] = tested on: HCT116 cells; assay: DNA fragmentation, agarose gel electrophoresis; assay type: cell-based, human; conditions: HCT116, 6.76 µg/mL, 48 h, 2% agarose gel
Method: Both control and treated cells were incubated for 48h. Then cells of both two samples were harvested for DNA fragmentation measurements using a SIGMA DNA fragmentation imaging kit with catalogue number 06432344001. To verify the validity of the DNA of both control and cells treated with 6.76 µg/mL of chalcone 7f, we carried out the loading of all samples on 2% agarose gel containing 1 µg/mL ethidium bromide and visualized by ultraviolet transillumination.
The DNA gel electrophoresis laddering assay in the HCT116 cell line was performed according to the instructions of Yawata[87] with some modifications. Briefly, after 48 h of exposure of the HCT116 cancer cell line to compound 7f in Petri dishes (60 × 15 mm, Greiner), the cells were suspended in 1 ml of medium and then centrifuged at 900 rpm for 10 min. […] About 1 × 10^6 cells of HCT116 were treated with the IC50 value of compound 7f. Then, the treated cells were collected via trypsinization and washed with Dulbecco’s Phosphate Buffered Saline. Afterwards, the cells were treated with the lysis buffer (5 mM ethylenediaminetetraacetic acid (EDTA), 0.5% Triton X-100, 10 mM Tris (pH 7.4), and 150 mM NaCl) for 35 min on ice. […] At last, the fragmented DNA percentage was detected by performing gel electrophoresis using 2% agarose gel containing 0.1 μg/ml ethidium bromide (Supplementary File 1).

[3] = tested on: normal human skin melanocyte cell line (HFB4); assay: Cytotoxic MTT assay, normal HFB4 cells; assay type: cell-based; conditions: 48 h treatment
Method: (§3) MTT protocol was performed to study the viability of cells after treatment with the tested compounds. The studied cell lines (A549 and HCT116) were cultured and grown in RPMI‐1640 media, while HFB4 cells were reserved in DMEM‐F12 media. Both media were supplemented with 10% FBS, 1% L‐glutamine, and 1% antibiotic–antimycotic mixture. The cell lines were grown at conditions of 37 °C and 5% CO2. 10 × 10^3 of A549, and HCT116 cells and the same count of normal melanocytes (HFB4) were cultured in a 96‐well plate. The selected cultured cells were kept at 37°C and 5% CO2 overnight. Then, the medium was discarded after 24 h of incubation, and 100 µL from different concentrations of the studied compounds dissolved in fresh medium without serum, with final concentrations of 100, 50, 25, 12.5, 6.25, 3.125, 1.56, and 0.78 µg/mL was added. The treated cells were then incubated for 48 h. After that, 50 µL of MTT was added into each well for 4 h for the formazan crystals to be formed. Finally, 200 µl of 10% sodium dodecyl sulphate (SDS) was added to each well, and plates were kept at room temperature overnight to allow the reaction to be stopped. The optical density at 575 nm was read using a microplate multi-well reader, and the percentage of cell viability was calculated. The dose–response curve was drawn to calculate the IC50 values for each compound using the prism GraphPad 5 program, [84]. 5 Fluorouracil, a commercial anticancer drug was used as a reference drug (positive control). Negative untreated cell control was used in this assay.

[4] = tested on: colorectal carcinoma (HCT116); assay: Cytotoxic MTT assay, HCT116; assay type: cell-based, human
Method: as §3

[5] = tested on: lung carcinoma (A549); assay: Cytotoxic MTT assay, A549; assay type: cell-based; conditions: Homo sapiens, 48 h treatment
Method: as §3

[6] = tested on: CDK4; assay: RT-PCR gene expression, CDK4, in HCT116; assay type: cell-based, human; conditions: HCT116, 6.76 µg/mL, 48 h, relative to untreated control
Method: as §1, §2

N#C/C(=C\c1cn(-c2ccccc2)nc1-c1ccc([N+](=O)[O-])cc1)C(=O)c1c[nH]c2ccccc12 [Compound 7f, (E)-2-(1H-Indole-3-carbonyl)-3-(3-(4-nitrophenyl)-1-phenyl-1H-pyrazol-4-yl)acrylonitrile]
RT-PCR fold change p53 [1]: 5.435 fold | effect on genomic DNA (DNA fragmentation) [2]: completely deteriorated the genomic DNA; also recorded: completely degraded the genomic DNA | IC50 [3]: 56.7 µg/mL (≈ 123 µM) | Selectivity index (SI) = IC50 in normal cells/IC50 in tumor cells ([4]; HFB4 versus HCT116): 8.4 | IC50 ([4]; Homo sapiens, HCT-116, MTT, 48 h treatment): 6.76 µg/mL (≈ 14.7 µM) | IC50 [5]: > 100 µg/mL | RT-PCR fold change CDK4 [6]: 0.454 fold
